From patent US20020002171A1, “Materials and methods for killing nematodes and nematode eggs” (priority 2000, published 2002)

Test system: Caenorhabditis elegans
Test: C. elegans L1 nematicidal dose response in 96-well plates, 5 day visual score (Example 2; same procedure for Example 7, Table 3)
Format: in vivo
Parameters: key to 5 Day Visual Score V1 / 5 Day Visual Score V2 / 5 Day Visual Score V3 / 5 Day Visual Score V4 / 5 Day Visual Score V6 / 5 Day Visual Score V5 / Initial HTS Run Visual Score / Follow-up HTS Run Visual Score: Dead: only stiff L1s (no movement); Dead (L4): worms are dead, but at a later larval stage; majority of worms are L1 (based on size) worms move when plate is tapped; majority of worms are L2 (based on size); majority of worms are L3 (based on size); majority of worms are L4 (based on size); AD: majority of worms are adult; #AD: 5 adult worms or less; B!: sterile (0-25 progeny); B: low broodsize (25-100 progeny); ˜B: moderate broodsize (100-250 progeny); <: reduced broodsize (250-500 progeny); OK: no effect (˜1000+ progeny)
Summary of the method: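 Scoring was by eye at 100× on day 5, after incubation at 20° C, of 20 C. elegans L1s per well fed 1% E. coli HB101 in NGM. Compound columns V1–V6 spanned 70 μM to 0.3 μM in 3-fold steps, with 1.4% DMSO in the top well and as control.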

[1] = dose response, dilution V1, day 5
[2] = dose response, dilution V3, day 5
[3] = dose response, dilution V4, day 5
[4] = dose response, dilution V5, day 5
[5] = dose response, dilution V6, day 5
[6] = dose response, dilution V2, day 5
[7] = 2.6 μM, C. elegans L1, scored day 5
[8] = 23.3 μM, C. elegans L1, scored day 5
[9] = 70 μM, C. elegans L1, scored day 5
[10] = dose response, dilution V1, 5 day
[11] = dose response, dilution V2, 5 day
[12] = dose response, dilution V4, 5 day
[13] = dose response, dilution V5, 5 day
[14] = dose response, dilution V6, 5 day

SMILES | Follow-up HTS Run % Run [%] | Follow-up HTS Run Visual Score | Follow-up HTS Run mOD [mOD] | Initial HTS Run % Run [%] | Initial HTS Run Visual Score | Initial HTS Run mOD [mOD] | 5 Day Visual Score V1 [1] | 5 Day Visual Score V3 [2] | 5 Day Visual Score V4 [3] | 5 Day Visual Score V5 [4] | 5 Day Visual Score V6 [5] | 5 Day Visual Score V2 [6] | further results
CCOC(=O)CCN(Cc1ccccc1)c1nc(N2CCN(c3ccc(F)cc3)CC2)ns1 [compound 238] | 122 | L4/AD/B | 197 | 135 | L4/Ad/B! | 148 | L1 | < (reduced broodsize (250-500 progeny)) | < (reduced broodsize (250-500 progeny)) | OK (no effect (˜1000+ progeny)) | OK (no effect (˜1000+ progeny)) |  | 
CCCN(CC1CC1)c1nc(NCc2ccccc2C(F)(F)F)ns1 [compound 260] | 147 | L2 | 236 | 122 | L2 (Dead L3) | 134 | L1 | OK (no effect (˜1000+ progeny)) | OK (no effect (˜1000+ progeny)) | OK (no effect (˜1000+ progeny)) | OK (no effect (˜1000+ progeny)) | B (low broodsize (25-100 progeny)) | 
CCN(Cc1ccccc1)c1nc(NCc2c(F)cccc2F)ns1 [compound 299] | 115 | L4 | 185 | 105 |  | 116 | L4#AD/B | ˜B (moderate broodsize (100-250 progeny)) | OK (no effect (˜1000+ progeny)) | OK (no effect (˜1000+ progeny)) | OK (no effect (˜1000+ progeny)) | ˜B (moderate broodsize (100-250 progeny)) | 
O=C(NCCCCCc1nc(-c2ccccc2)no1)Nc1ccc(OC(F)(F)F)cc1 [AKC 115] |  |  |  |  |  |  |  |  |  |  |  |  | 5 Day Visual Score V5 (0.9 μM, C. elegans L1, scored day 5): Dead(L2/L; 5 Day Visual Score V4 [7]: Dead(L2); 5 Day Visual Score V3 (7.8 μM, C. elegans L1, scored day 5): L2/Dead(L2); 5 Day Visual Score V2 [8]: Dead(L2/L3); 5 Day Visual Score V1 [9]: Dead
Cc1cccc(C)c1N1CCN(c2nsc(N(C)CCc3ccccc3)n2)CC1 [compound 234] | 63 | 2AD/B | 102 | 120 | 3AD/B | 132 | Dead | ˜B (moderate broodsize (100-250 progeny)) | < (reduced broodsize (250-500 progeny)) | OK (no effect (˜1000+ progeny)) | OK (no effect (˜1000+ progeny)) |  | 
CN(Cc1ccccc1)c1nc(NC2CCCCCCCCCCC2)ns1 [compound 336] | 90 |  | 145 | 97 | Dead/1AD/B! | 107 |  |  |  |  |  |  | 5 Day Visual Score V1 [10]: Dead; 5 Day Visual Score V2 [11]: Dead; 5 Day Visual Score V4 [12]: OK (no effect (˜1000+ progeny)); 5 Day Visual Score V5 [13]: OK (no effect (˜1000+ progeny)); 5 Day Visual Score V6 [14]: OK (no effect (˜1000+ progeny))
FC(F)(F)c1ccc(CNc2nsc(N3CCN(c4cccc(C(F)(F)F)c4)CC3)n2)cc1 [compound 250] | 125 |  | 201 | 108 | L2 - (Dead L3) | 119 | L3/Dead(L3) | B (low broodsize (25-100 progeny)) | OK (no effect (˜1000+ progeny)) | OK (no effect (˜1000+ progeny)) | OK (no effect (˜1000+ progeny)) | L4/#AD/B! | 
FC(F)(F)c1ccc(CNc2nsc(N3CCN(c4ncccn4)CC3)n2)cc1 [compound 303] | 111 |  | 178 | 96 | L3 | 106 | Dead | Dead | OK (no effect (˜1000+ progeny)) | < (reduced broodsize (250-500 progeny)) |  | L1 | 
COCCN(CCOC)c1nc(N2CCN(c3c(C)cccc3C)CC2)ns1 [compound 221] | 84 | 5AD/B | 136 | 97 | L4/AD/B | 107 | #AD/˜B | OK (no effect (˜1000+ progeny)) | OK (no effect (˜1000+ progeny)) | OK (no effect (˜1000+ progeny)) | OK (no effect (˜1000+ progeny)) |  | 
Cc1cccc(C)c1N1CCN(c2nc(NCc3ccc(C(F)(F)F)cc3)ns2)CC1 [compound 304] | 107 |  | 172 | 96 | L4/AD/B! | 106 | L1 | OK (no effect (˜1000+ progeny)) | OK (no effect (˜1000+ progeny)) | OK (no effect (˜1000+ progeny)) | < (reduced broodsize (250-500 progeny)) | OK (no effect (˜1000+ progeny)) | 
CC(C)CN(CC(C)C)c1nc(NCc2ccc(C(F)(F)F)cc2)ns1 [compound 311] | 109 | B! (sterile (0-25 progeny)) | 176 | 98 | L4/AD/B! | 108 |  |  |  |  |  |  | 5 Day Visual Score V1 [10]: L1; 5 Day Visual Score V2 [11]: < (reduced broodsize (250-500 progeny)); 5 Day Visual Score V3 (dose response, dilution V3, 5 day): OK (no effect (˜1000+ progeny)); 5 Day Visual Score V4 [12]: OK (no effect (˜1000+ progeny)); 5 Day Visual Score V5 [13]: OK (no effect (˜1000+ progeny)); 5 Day Visual Score V6 [14]: OK (no effect (˜1000+ progeny))
Fc1cccc(F)c1CNc1nsc(N2CCN(c3cccc(C(F)(F)F)c3)CC2)n1 [compound 246] | 130 |  | 209 | 123 | L3 | 135 | Dead | OK (no effect (˜1000+ progeny)) | OK (no effect (˜1000+ progeny)) | OK (no effect (˜1000+ progeny)) | OK (no effect (˜1000+ progeny)) |  | 
O=C(Nc1ccc(OC(F)(F)F)cc1)NC1CCC(c2nc(-c3ccccc3)no2)CC1 (stereo not drawn) [AKC 107] |  |  |  |  |  |  |  |  |  |  |  |  | 5 Day Visual Score V6 (0.3 μM, C. elegans L1, scored day 5): L2/Dead(L; 5 Day Visual Score V4 [7]: Dead(L4); 5 Day Visual Score V2 [8]: Dead(L2/L3); 5 Day Visual Score V1 [9]: Dead
